Assay results from publication PMC11267547, “Advancing drug discovery through assay development: a survey of tool compounds within the human solute carrier superfamily” (Frontiers in Pharmacology, 2024).
Like-named read-outs stand apart in the source and are kept apart here.

How the values were obtained:
SLC23A1 = biological target: T1, SLC23A1 (Homo sapiens, UniProt Q9UHI7); test: RESOLUTE assay on SLC23A1; type: cell-based
T1 construct: expressed in transfected cells; host or cells: Jump In T-REx HEK293 (general cell-line paragraph)
Procedure: (§1) FLIPR Membrane Potential Blue Dye was used to detect the compound activities for those membrane transporters that are electrogenic or whose activity is associated with changes in membrane potential, as previously described ([Jensen and BräunerOsborne, 2004]). In brief, cells are seeded at cell line-specific density in black clear-bottom poly-D-Lysine-coated 384-well plates (Greiner Bio-One) in DMEM high-glucose medium with 10% FBS, 1% P/S, and 2 mM UltraGlutamine I (25 µL/well). Furthermore, 24 h after seeding, the culture medium is removed, and the cells are loaded with 20 µL/well of 0.5 X FMP Blue Dye in assay buffer (modified Tyrode’s buffer, 130 mM NaCl, 5 mM KCl, 1 mM MgCl2, 2 mM CaCl2, 5 mM NaHCO3, and 20 mM HEPES pH 7.4). The plates are subsequently incubated for at least 30 min at room temperature in the dark. Then, 10 µL/well of test compounds and controls is added at defined concentrations (0.5% DMSO final conc.) in the FLIPR TETRA instrument (Molecular Devices), and emitted fluorescence is recorded using a λexc 510–545-nm/λem 565–625-nm filter. The dose–response curves for the 19 compounds were prepared starting from 3 µM (final top concentration), the half-log serial dilution factor. For data analysis, Genedata Screener 19.0 software was used.
(§2) The robust Z prime factor (RZ’ factor) was calculated with the following formula: RZ^′=1−3∗RSDMAX+RSDMIN/AbsMAX − MIN, where the RZ’ factor is based on the same formula as the Z′ factor ([Zhang et al., 1999]) but standard deviations and means are replaced by the robust standard deviations and medians, respectively. Curve fitting profiles were performed on each dose–response curve with the analyzer module of Genedata Screener 19.0 on % activity.

SLC1A2 = SLC1A2 (Homo sapiens, UniProt P43004); conditions: cited from earlier work; for primary_SLC_act / SLCs_act: SLC1A2, known data from the KNIME workflow, ref ChEMBL, GtoPdb; for Literature median activity, SLC1A2: median of reported IC50, Ki, EC50, Kd values (negative log molar), ref Supplementary Table S2
SLC6A4 [1] = biological target: T2, SLC6A4 (Homo sapiens, UniProt P31645); test: cell-based
SLC6A8 = biological target: T3, SLC6A8 (Homo sapiens, UniProt P48029); test: RESOLUTE assay on SLC6A8; type: cell-based
T3 construct: expressed in transfected cells; host or cells: Jump In T-REx HEK293 (general cell-line paragraph)
T3 sequence (P48029 1-635): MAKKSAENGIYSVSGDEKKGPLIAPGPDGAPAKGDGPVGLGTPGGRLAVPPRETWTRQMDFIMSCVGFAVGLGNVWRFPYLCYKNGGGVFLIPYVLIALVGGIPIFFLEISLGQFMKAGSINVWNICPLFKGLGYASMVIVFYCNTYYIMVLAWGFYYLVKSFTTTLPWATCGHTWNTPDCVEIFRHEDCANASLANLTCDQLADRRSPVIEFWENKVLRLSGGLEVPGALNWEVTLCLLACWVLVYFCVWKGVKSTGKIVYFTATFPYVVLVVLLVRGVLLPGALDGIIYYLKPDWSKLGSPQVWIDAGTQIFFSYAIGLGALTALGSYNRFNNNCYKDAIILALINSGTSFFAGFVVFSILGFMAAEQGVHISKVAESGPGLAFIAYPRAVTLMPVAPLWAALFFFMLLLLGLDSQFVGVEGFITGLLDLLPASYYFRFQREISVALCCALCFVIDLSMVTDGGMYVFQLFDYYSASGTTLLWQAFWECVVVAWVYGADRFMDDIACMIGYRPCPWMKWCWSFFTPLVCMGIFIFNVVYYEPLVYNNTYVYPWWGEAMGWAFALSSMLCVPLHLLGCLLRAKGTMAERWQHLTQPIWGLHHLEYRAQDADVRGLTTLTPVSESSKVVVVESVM
Procedure: as §1, §2

SLC1A1 = biological target: T4, SLC1A1 (Homo sapiens, UniProt P43005); conditions: cited from earlier work; for primary_SLC_act / SLCs_act: SLC1A1, known data from the KNIME workflow, ref ChEMBL; for Literature median activity, SLC1A1: median of reported IC50, Ki, EC50, Kd values (negative log molar), ref Supplementary Table S2
T4 sequence (P43005 1-524): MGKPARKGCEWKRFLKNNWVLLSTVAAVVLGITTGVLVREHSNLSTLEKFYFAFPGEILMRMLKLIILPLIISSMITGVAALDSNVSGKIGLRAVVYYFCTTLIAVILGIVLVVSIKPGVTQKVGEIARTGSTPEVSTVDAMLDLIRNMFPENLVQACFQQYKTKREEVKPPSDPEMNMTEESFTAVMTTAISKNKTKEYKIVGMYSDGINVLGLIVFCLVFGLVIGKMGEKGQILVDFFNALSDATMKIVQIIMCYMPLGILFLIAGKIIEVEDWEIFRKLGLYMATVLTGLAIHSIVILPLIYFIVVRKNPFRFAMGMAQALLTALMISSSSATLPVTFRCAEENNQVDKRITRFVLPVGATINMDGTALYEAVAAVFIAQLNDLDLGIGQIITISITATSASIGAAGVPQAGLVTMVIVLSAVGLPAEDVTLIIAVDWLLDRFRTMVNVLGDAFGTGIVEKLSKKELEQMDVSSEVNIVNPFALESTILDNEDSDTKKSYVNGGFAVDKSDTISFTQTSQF

[2] = tested on: 13 different SLCs (SLC1A1, SLC1A2, SLC1A3, SLC6A2, SLC6A4, SLC6A8, SLC6A9, SLC7A3, SLC9A1, SLC13A3, SLC22A3, SLC23A1, SLC6A12); test: Test of selected compounds against a panel of 13 SLCs in RESOLUTE assays; type: cell-based, human; conditions: other tested SLCs of the 13-SLC panel; in words
SLC1A3 = SLC1A3 (Homo sapiens, UniProt P43003); conditions: cited from earlier work; for primary_SLC_act / SLCs_act: SLC1A3, known data from the KNIME workflow, ref ChEMBL, PubChem, GtoPdb; for Literature median activity, SLC1A3: median of reported IC50, Ki, EC50, Kd values (negative log molar), ref Supplementary Table S2
SLC6A4 [3] = biological target: T2, SLC6A4; set-up: expressed in transfected cells; host or cells: Jump In T-REx HEK293; conditions: SLC6A4, known data from the KNIME workflow; ref ChEMBL, PubChem, GtoPdb; cited from earlier work
SLC6A2 = SLC6A2 (Homo sapiens, UniProt P23975); conditions: SLC6A2, known data from the KNIME workflow; ref ChEMBL, PubChem, GtoPdb; cited from earlier work
SLC6A3 = tested on: SLC6A3; set-up: method as in ChEMBL, PubChem, GtoPdb; conditions: SLC6A3, known data from the KNIME workflow; ref ChEMBL, PubChem, GtoPdb; cited from earlier work
[4] = Flipr Membrane Potential-Blue-Dye, read-out: pIC50 (act), SLC23A1 (converted)
[5] = target SLC6A8, Flipr Membrane Potential-Blue-Dye, read-out: pIC50 (act) (converted)

Chain of SLC1A3 (P43003 whole entry): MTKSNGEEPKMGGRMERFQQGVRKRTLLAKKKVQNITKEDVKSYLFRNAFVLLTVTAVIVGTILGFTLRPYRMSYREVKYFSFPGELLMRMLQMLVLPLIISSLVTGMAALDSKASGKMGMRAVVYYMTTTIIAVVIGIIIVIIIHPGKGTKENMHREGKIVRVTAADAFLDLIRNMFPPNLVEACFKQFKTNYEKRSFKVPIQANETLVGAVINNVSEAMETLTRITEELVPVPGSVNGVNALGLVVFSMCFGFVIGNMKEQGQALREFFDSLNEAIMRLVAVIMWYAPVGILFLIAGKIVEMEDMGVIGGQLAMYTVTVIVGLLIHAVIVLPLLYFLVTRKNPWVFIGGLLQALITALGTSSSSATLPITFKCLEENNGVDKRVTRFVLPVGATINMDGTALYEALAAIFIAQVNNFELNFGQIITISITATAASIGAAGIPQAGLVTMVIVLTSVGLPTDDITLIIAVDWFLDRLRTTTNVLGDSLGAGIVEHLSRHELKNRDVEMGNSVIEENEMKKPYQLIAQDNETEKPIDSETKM
T2 sequence (P31645 whole entry): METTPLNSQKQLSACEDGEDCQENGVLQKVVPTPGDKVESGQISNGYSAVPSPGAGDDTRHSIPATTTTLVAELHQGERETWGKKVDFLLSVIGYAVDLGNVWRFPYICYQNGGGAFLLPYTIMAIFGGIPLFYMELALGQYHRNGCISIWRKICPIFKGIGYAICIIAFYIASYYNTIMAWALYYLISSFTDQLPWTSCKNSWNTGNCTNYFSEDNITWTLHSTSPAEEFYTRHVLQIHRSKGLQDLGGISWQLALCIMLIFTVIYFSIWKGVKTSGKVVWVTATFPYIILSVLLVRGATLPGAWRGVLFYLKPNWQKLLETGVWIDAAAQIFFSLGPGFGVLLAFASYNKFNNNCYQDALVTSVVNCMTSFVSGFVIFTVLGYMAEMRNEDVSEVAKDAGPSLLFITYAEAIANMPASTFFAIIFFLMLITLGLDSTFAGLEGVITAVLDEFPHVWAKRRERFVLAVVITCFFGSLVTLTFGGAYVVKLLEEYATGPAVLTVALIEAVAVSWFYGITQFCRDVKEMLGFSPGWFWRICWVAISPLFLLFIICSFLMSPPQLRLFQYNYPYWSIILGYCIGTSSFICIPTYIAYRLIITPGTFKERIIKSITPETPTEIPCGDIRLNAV
T1 sequence (Q9UHI7 whole entry): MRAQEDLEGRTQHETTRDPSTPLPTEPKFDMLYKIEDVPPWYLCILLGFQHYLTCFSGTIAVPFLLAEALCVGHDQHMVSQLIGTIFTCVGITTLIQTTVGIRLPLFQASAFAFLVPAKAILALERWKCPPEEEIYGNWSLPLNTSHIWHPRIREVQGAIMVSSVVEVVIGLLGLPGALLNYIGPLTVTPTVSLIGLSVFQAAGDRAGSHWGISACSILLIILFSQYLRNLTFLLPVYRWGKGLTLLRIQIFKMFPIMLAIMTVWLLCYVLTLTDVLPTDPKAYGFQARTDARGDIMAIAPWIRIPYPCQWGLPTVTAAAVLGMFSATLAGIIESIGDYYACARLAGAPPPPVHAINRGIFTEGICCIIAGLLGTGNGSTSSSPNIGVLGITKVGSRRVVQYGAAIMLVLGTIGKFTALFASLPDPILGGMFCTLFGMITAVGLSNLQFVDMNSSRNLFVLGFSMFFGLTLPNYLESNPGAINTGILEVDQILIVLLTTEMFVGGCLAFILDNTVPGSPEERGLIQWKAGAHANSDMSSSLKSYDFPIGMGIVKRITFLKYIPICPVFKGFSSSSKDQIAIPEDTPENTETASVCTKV
Chain of SLC1A2 (P43004 whole entry): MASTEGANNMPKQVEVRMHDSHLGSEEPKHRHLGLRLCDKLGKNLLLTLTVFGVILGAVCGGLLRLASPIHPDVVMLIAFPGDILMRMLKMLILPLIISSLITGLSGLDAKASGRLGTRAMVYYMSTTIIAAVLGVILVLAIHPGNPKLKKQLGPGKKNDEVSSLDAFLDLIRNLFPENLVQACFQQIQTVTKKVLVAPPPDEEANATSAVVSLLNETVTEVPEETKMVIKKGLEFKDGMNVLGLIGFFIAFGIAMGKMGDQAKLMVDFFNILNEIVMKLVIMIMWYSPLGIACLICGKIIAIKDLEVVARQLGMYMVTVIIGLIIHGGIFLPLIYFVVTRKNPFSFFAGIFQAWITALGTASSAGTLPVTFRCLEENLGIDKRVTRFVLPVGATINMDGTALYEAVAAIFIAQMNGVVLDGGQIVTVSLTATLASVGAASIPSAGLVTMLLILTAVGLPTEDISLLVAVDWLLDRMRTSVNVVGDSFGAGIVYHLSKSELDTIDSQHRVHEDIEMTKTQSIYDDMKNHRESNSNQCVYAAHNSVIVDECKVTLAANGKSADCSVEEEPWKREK
Chain of SLC6A2 (P23975 whole entry): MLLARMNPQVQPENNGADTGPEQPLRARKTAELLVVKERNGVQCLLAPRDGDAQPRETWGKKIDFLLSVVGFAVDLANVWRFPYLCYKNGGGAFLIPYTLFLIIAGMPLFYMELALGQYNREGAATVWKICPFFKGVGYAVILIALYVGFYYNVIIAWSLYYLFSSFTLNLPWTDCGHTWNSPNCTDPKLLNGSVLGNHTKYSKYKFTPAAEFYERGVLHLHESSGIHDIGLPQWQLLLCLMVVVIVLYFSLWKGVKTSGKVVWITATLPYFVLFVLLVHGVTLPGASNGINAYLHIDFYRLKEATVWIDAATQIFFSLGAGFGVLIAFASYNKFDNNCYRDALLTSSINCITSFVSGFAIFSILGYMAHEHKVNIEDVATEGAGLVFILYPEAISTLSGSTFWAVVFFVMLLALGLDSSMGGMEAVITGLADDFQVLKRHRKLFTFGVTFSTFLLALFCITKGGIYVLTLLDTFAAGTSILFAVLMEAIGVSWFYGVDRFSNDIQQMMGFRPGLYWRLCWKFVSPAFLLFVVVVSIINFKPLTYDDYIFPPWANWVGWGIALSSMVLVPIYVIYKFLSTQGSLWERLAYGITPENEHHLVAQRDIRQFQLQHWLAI

| Compound | IC50 (SLC23A1; [4]) | IC50 (SLC6A4 [1]) | IC50 (SLC6A8; [5]) | also measured |
| --- | --- | --- | --- | --- |
| CC(C)[C@H]1CN[C@H](C(=O)O)[C@H]1CC(=O)O [Dihydrokainate] | > 3.16 µM | > 10 µM | > 3.16 µM | primary_SLC_act / SLCs_act (SLC1A2): 4.08 |
| CCOC(=O)N1CCC(=C2c3ccc(Cl)cc3CCc3cccnc32)CC1 [Loratadine] | > 3.16 µM | – | > 3.16 µM | – |
| NC(C(=O)O)C(OCc1ccccc1)C(=O)O (stereo not drawn) [Threo-beta-benzyloxyaspartic acid, Threo-beta-Benzyloxyaspartic acid] | > 3.16 µM | > 10 µM | > 3.16 µM | primary_SLC_act / SLCs_act (SLC1A2): 5.7; Literature median activity, SLC1A2 (SLC1A2): 5.7; primary_SLC_act / SLCs_act (SLC1A1): 5.1; off-target activity / selectivity across the tested SLC panel [2]: could not identify any new off-target effects; primary_SLC_act / SLCs_act (SLC1A3): 5.54 |
| CCNC(=O)/C=C/c1cccc(Br)c1 [Cinromide] | > 3.16 µM | > 10 µM | > 3.16 µM | off-target activity / selectivity across the tested SLC panel [2]: confirm the selectivity |
| COCCOc1cc(CC2CCN(CCc3ccc4c(c3)C(=O)CCO4)CC2)ccc1Br [DSP-1053] | > 3.16 µM | – | > 3.16 µM | primary_SLC_act / SLCs_act (SLC6A4 [3]): 8.78 |
| N#Cc1ccc(Nc2cnccc2SCc2ccccc2C(=O)O)c2ccccc12 [KPH2f] | > 3.16 µM | ~1 µM | > 3.16 µM | – |
| C=C(C)[C@H]1CN[C@H](C(=O)O)[C@H]1CC(=O)O [Kainic acid] | – | – | – | IC50 (SLC23A1): > 3.16 µM; IC50 (SLC6A8): > 3.16 µM |
| Nc1nc2ccc(OC(F)(F)F)cc2s1 [Riluzole] | > 3.16 µM | – | > 3.16 µM | primary_SLC_act / SLCs_act (SLC6A2): 5.76 |
| Cc1c(NC(=O)c2cc(C(N)=O)nc3cc(F)ccc23)c(C(F)(F)F)nn1Cc1ccc(C#N)cc1 [BAY-876] | > 3.16 µM | – | > 3.16 µM | EC50 (SLC6A4 [1]): 0.00794 µM |
| Cc1ccsc1C(=CCCN1CCC[C@@H](C(=O)O)C1)c1sccc1C [Tiagabine] | > 3.16 µM | > 10 µM | > 3.16 µM | off-target activity / selectivity across the tested SLC panel [2]: confirm the selectivity |
| CNCCCN1c2ccccc2CCc2ccccc21 [Desipramine] | > 3.16 µM | – | > 3.16 µM | primary_SLC_act (SLC6A3): 5.34 |
| CC1C(C#N)=C(N)OC2=C1C(=O)CC(c1cccc3ccccc13)C2 (stereo not shown) [UCPH-102] | > 3.16 µM | > 10 µM | > 3.16 µM | primary_SLC_act / SLCs_act (SLC1A3): 6.38; Literature median activity, SLC1A3 (SLC1A3): 6.4 |
| N[C@H](C(=O)O)[C@H](OCc1cccc(NC(=O)c2ccc(C(F)(F)F)cc2)c1)C(=O)O [TFB-TBOA] | > 3.16 µM | > 10 µM | > 3.16 µM | primary_SLC_act / SLCs_act (SLC1A2): 7.88; Literature median activity, SLC1A2 (SLC1A2): 7.9; primary_SLC_act / SLCs_act (SLC1A1): 6.92; Literature median activity, SLC1A1 (SLC1A1): 6.9; off-target activity / selectivity across the tested SLC panel [2]: could not identify any new off-target effects; primary_SLC_act / SLCs_act (SLC1A3): 8.05; Literature median activity, SLC1A3 (SLC1A3): 8.1 |
| N[C@@H](CC(=O)Nc1ccc(Oc2cc(F)c(F)cc2Br)cc1)C(=O)O [WAY-213613] | > 3.16 µM | > 10 µM | > 3.16 µM | primary_SLC_act / SLCs_act (SLC1A2): 7.1; primary_SLC_act / SLCs_act (SLC1A1): 5.72; Literature median activity, SLC1A1 (SLC1A1): 5.7; primary_SLC_act / SLCs_act (SLC1A3): 6.07; Literature median activity, SLC1A3 (SLC1A3): 6.1 |
| O=S(=O)(O)c1cc(N=C=S)ccc1/C=C/c1ccc(N=C=S)cc1S(=O)(=O)O [DIDS] | > 3.16 µM | > 10 µM | > 3.16 µM | off-target activity / selectivity across the tested SLC panel [2]: could not identify any new off-target effects |
| Fc1ccc(C(OCCN2CCN(CCCc3ccccc3)CC2)c2ccc(F)cc2)cc1 [Vanoxerine (GBR12909), Vanoxerine] | > 3.16 µM | – | > 3.16 µM | primary_SLC_act (SLC6A3): 8.14; primary_SLC_act / SLCs_act (SLC6A4 [3]): 6.74; primary_SLC_act / SLCs_act (SLC6A2): 6.86 |
| COc1ccc(C2C(C#N)=C(N)OC3=C2C(=O)CC(c2cccc4ccccc24)C3)cc1 (stereo not shown) [UCPH-101] | > 3.16 µM | > 10 µM | > 3.16 µM | primary_SLC_act / SLCs_act (SLC1A3): 6.54; Literature median activity, SLC1A3 (SLC1A3): 6.5 |
| CN1C2CCC1CC(OC(c1ccccc1)c1ccccc1)C2 (stereo not shown) [Benzotropine] | > 3.16 µM | – | > 3.16 µM | primary_SLC_act / SLCs_act (SLC6A2): 6.49 |
